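Method: 48-hour compound exposure of cells in 96-well plates, five concentrations, linear interpolation of endpoints. GI50 marks 50% less growth.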 Calls of active or inactive are those of the source. Rule as the data show it: active = GI50 up to about 1.1 µM and inactive = higher.
Columns and labels:
Test in all cases: DTP human tumour cell line panel, 48 h
[1] = test system: ACHN
[2] = test system: HOP-92
[3] = test system: U-251
[4] = test system: OVCAR-4
[5] = test system: OVCAR-3
[6] = test system: SN12C
[7] = test system: LOX IMVI
[8] = test system: CCRF-CEM
[9] = test system: SF-295
[10] = test system: SK-MEL-2
[11] = test system: Malme-3M
[12] = test system: UO-31
[13] = test system: KM12
[14] = test system: IGROV-1
[15] = test system: EKVX
[16] = test system: UACC-257
[17] = test system: NCI-H522
[18] = test system: PC-3
[19] = test system: MCF7

Measured: GI50

Nc1nncc2c1c(Br)cn2C1OC(CO)C(O)C1O (stereo unspecified)
inactive: [1] 15.1 µM | [2] 8.63 µM | [3] > 70.6 µM | [4] > 52.7 µM | [5] 6.62 µM | [6] 5.3 µM | [7] 5.74 µM | [8] 2.33 µM | [9] 39.6 µM | [10] > 40.8 µM | [11] > 79.1 µM | [12] > 37.9 µM | [13] 43.9 µM | [14] 25.1 µM | [15] 25.6 µM | [16] > 100 µM | [17] 31.3 µM

Nc1nc2cc3nc(N)c(N)nc3cc2nc1N
inactive: [1] > 100 µM | [3] > 100 µM | [5] > 100 µM | [6] > 100 µM | [7] > 100 µM | [8] 64.3 µM | [9] > 100 µM | [10] > 100 µM | [11] > 100 µM | [18] > 100 µM | [12] > 100 µM | [19] > 100 µM | [13] > 100 µM | [14] > 100 µM | [15] > 100 µM | [16] > 100 µM | [17] > 100 µM

O=C(/C=C/c1ccccc1)NC1C=Nc2ccc([N+](=O)[O-])cc2NC1=O (stereo unspecified)
inactive: [1] 26.2 µM | [2] > 100 µM | [3] > 100 µM | [4] > 100 µM | [5] 80.5 µM | [6] > 100 µM | [7] 22.7 µM | [8] 17.4 µM | [9] 30.3 µM | [10] 25.7 µM | [11] > 100 µM | [12] 48.9 µM | [13] 18.1 µM | [14] > 100 µM | [15] > 100 µM | [16] > 100 µM | [17] 6.01 µM

CCOC(=O)N1N=NC2C3OC(C[C@@]3(C#N)OC(C)=O)[C@H]21 (stereo partly specified)
inactive: [1] > 100 µM | [2] > 100 µM | [3] > 100 µM | [4] > 100 µM | [5] > 100 µM | [6] > 100 µM | [7] > 100 µM | [8] > 100 µM | [9] > 100 µM | [10] > 100 µM | [11] > 100 µM | [12] > 100 µM | [13] > 100 µM | [14] > 100 µM | [15] > 100 µM | [16] > 100 µM | [17] > 100 µM

COc1cc2cccc(/N=C\c3ccccc3Cl)c2cc1OC
inactive: [1] > 100 µM | [2] > 100 µM | [3] 95.9 µM | [4] > 100 µM | [5] > 100 µM | [6] > 100 µM | [7] 70.3 µM | [8] 22.8 µM | [9] 69 µM | [10] > 100 µM | [11] > 100 µM | [12] > 100 µM | [13] > 100 µM | [14] > 100 µM | [15] > 100 µM | [16] > 100 µM | [17] > 100 µM

COC(=O)C(=O)C(CC(=O)Nc1c(C)cccc1C)C(=O)OC (stereo unspecified)
inactive: [1] > 100 µM | [2] > 100 µM | [3] > 100 µM | [4] > 100 µM | [5] > 100 µM | [6] > 100 µM | [7] > 100 µM | [8] > 100 µM | [9] > 100 µM | [10] > 100 µM | [11] > 100 µM | [12] > 100 µM | [13] > 100 µM | [14] > 100 µM | [15] > 100 µM | [16] > 100 µM | [17] > 100 µM

N#Cc1nc(C2OC(COC(=O)c3ccccc3)C(OC(=O)c3ccccc3)C2OC(=O)c2ccccc2)oc1N (stereo unspecified)
inactive: [1] 33.7 µM | [2] 96.4 µM | [3] 32.5 µM | [4] 10.8 µM | [5] 34.1 µM | [6] 48.2 µM | [7] 67.1 µM | [8] 3.18 µM | [9] 39.2 µM | [10] 27.3 µM | [11] 84.3 µM | [12] 12 µM | [13] 18.3 µM | [14] > 100 µM | [15] 39.5 µM | [16] 20.7 µM | [17] 5.33 µM

CCOC(=O)C(C(=O)Cc1ccccc1)c1ccccc1 (stereo unspecified)
inactive: [1] > 100 µM | [2] 57 µM | [3] > 100 µM | [4] > 100 µM | [5] > 100 µM | [6] > 100 µM | [7] > 100 µM | [8] > 100 µM | [9] > 100 µM | [10] > 100 µM | [11] > 100 µM | [12] > 100 µM | [13] > 100 µM | [14] > 100 µM | [15] > 100 µM | [16] > 100 µM | [17] > 100 µM

C=C[C@]1(C)CCC2=C(CCC3C2(C)CCC[C@]3(C)CO)C1 (stereo partly specified)
inactive: [1] 69.2 µM | [2] 43.1 µM | [3] 26.9 µM | [4] > 100 µM | [5] 40 µM | [6] 20.2 µM | [7] 27.7 µM | [8] 33 µM | [9] 43.6 µM | [10] 45.9 µM | [11] > 100 µM | [12] 74 µM | [13] 38.4 µM | [14] > 100 µM | [15] 51.9 µM | [16] 51.5 µM | [17] 23 µM

O=C(CCCCCCCCC(=O)OCC1OC(n2cnc3c(=O)[nH]cnc32)C(O)C1O)OCC1OC(n2cnc3c(=O)[nH]cnc32)C(O)C1O (stereo unspecified)
inactive: [1] > 100 µM | [2] > 100 µM | [3] > 100 µM | [4] > 100 µM | [5] > 100 µM | [6] > 100 µM | [7] > 100 µM | [8] > 100 µM | [9] > 100 µM | [10] > 100 µM | [11] > 100 µM | [12] > 100 µM | [13] > 100 µM | [14] > 100 µM | [15] > 100 µM | [16] > 100 µM | [17] > 100 µM

Cc1c(Cl)cccc1NC(=O)/C(Cl)=C(\Cl)C(=O)O
inactive: [1] 17.5 µM | [2] 17.4 µM | [3] 18.5 µM | [4] 16.9 µM | [5] 19 µM | [6] 17.4 µM | [7] 18.7 µM | [8] 4.14 µM | [9] 19.4 µM | [10] 19.8 µM | [11] 17.8 µM | [12] 18.7 µM | [13] 17.3 µM | [14] 19.5 µM | [15] > 10 µM | [16] 19.3 µM | [17] 2.1 µM

COC(=O)C(Cc1ccccc1)NC(=O)Cn1ccnc1[N+](=O)[O-] (stereo unspecified)
inactive: [1] > 100 µM | [2] 63.8 µM | [3] > 100 µM | [4] > 100 µM | [5] > 10 µM | [6] > 100 µM | [7] > 100 µM | [8] > 100 µM | [9] > 100 µM | [10] > 100 µM | [11] 31.7 µM | [12] > 100 µM | [13] > 100 µM | [14] > 100 µM | [15] > 100 µM | [16] > 100 µM | [17] > 100 µM

CC(=O)c1cccc(NC(=O)/C(=N\NC(C)(C)C)c2c(O)c3ccccc3oc2=O)c1
inactive: [1] > 100 µM | [2] > 100 µM | [4] > 100 µM | [5] > 100 µM | [6] > 100 µM | [7] > 100 µM | [8] > 100 µM | [9] > 100 µM | [10] > 100 µM | [11] > 100 µM | [12] > 100 µM | [13] > 100 µM | [14] > 100 µM | [15] > 100 µM | [16] > 100 µM | [17] > 100 µM

O=C(/C=C\c1ccccc1O)c1ccc(O)cc1O
inactive: [1] > 100 µM | [2] > 100 µM | [3] > 100 µM | [4] 54.6 µM | [5] > 100 µM | [6] > 100 µM | [7] > 100 µM | [8] 87.7 µM | [9] > 100 µM | [10] > 100 µM | [11] > 100 µM | [12] > 100 µM | [13] > 100 µM | [14] > 100 µM | [15] > 100 µM | [16] > 100 µM | [17] > 100 µM

COc1cc(C(=O)NO)ccc1O
inactive: [1] > 100 µM | [2] > 100 µM | [3] > 100 µM | [4] > 100 µM | [5] > 100 µM | [6] > 100 µM | [7] > 100 µM | [8] > 100 µM | [9] > 100 µM | [10] > 100 µM | [11] > 100 µM | [12] > 100 µM | [13] > 100 µM | [14] > 100 µM | [15] > 100 µM | [16] > 100 µM | [17] > 100 µM

C/C(CC(=O)NC1=CC=C(NC(=O)C/C(C)=N\Nc2ccccc2)CC1)=N/Nc1ccccc1
inactive: [1] > 100 µM | [2] > 100 µM | [3] > 100 µM | [4] > 100 µM | [5] > 100 µM | [6] > 100 µM | [7] 70.8 µM | [8] > 100 µM | [9] > 100 µM | [10] > 100 µM | [11] > 100 µM | [12] > 100 µM | [13] > 100 µM | [14] > 100 µM | [15] > 100 µM | [16] > 100 µM | [17] 72.6 µM
